Laboratory results as given in the supplement of paper PMC10307832.

How the values were obtained:
Test in all cases: relative viability (nuclei count vs DMSO), 5 days (fraction); higher = more cells survive
[1] = compound: Cc1ccccc1C(C(=O)NC1CCCCC1)N(C(=O)Cn1ccnc1C)c1cccc(F)c1 [IDH-C35] + O=C(CCCCCCC(=O)Nc1ccccc1)NO [Vorinostat] (partner 1 µM)
Summary of the method: (§1)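 Lung cancer cell lines in 1536-well plates got either a single drug or a fixed anchor-drug dose together with five library-drug doses (not always all listed) in √10 steps, by pin tool, on the day after seeding. Nuclei were counted after 5 days, and relative viability is the treated-to-vehicle ratio of nuclei counts. Values are medians of duplicate plates.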

[2] = compound: CC1=C(C(=NN1)C)CC2=C(C3=C(S2)N(C(=O)N(C3=O)C)CC(C)C)C(=O)N4C[C@@H](CO4)O + O=C(c1cc(Cc2n[nH]c(=O)c3ccccc23)ccc1F)N1CCN(C(=O)C2CC2)CC1 [Olaparib] (partner 8 µM)
Summary of the method: as §1

[3] = compound: CC1=C(C(=NN1)C)CC2=C(C3=C(S2)N(C(=O)N(C3=O)C)CC(C)C)C(=O)N4C[C@@H](CO4)O + Nc1nc2[nH]cc(CCc3ccc(C(=O)N[C@@H](CCC(=O)O)C(=O)O)cc3)c2c(=O)[nH]1 [Pemetrexed] (partner 0.2 µM)
Summary of the method: as §1

[4] = compound: Cc1ccccc1C(C(=O)NC1CCCCC1)N(C(=O)Cn1ccnc1C)c1cccc(F)c1 [IDH-C35] + CS(=O)(=O)N1CCN(Cc2cc3nc(-c4cccc5[nH]ncc45)nc(N4CCOCC4)c3s2)CC1 [Pictilisib] (partner 1 µM)
Summary of the method: as §1

Cell Line	relative viability ([1]; first compound 0.08 µM)	relative viability ([1]; first compound 0.253 µM)	relative viability ([1]; first compound 0.8 µM)	relative viability ([1]; first compound 2.53 µM)	relative viability ([1]; first compound 8 µM)	relative viability ([2]; first compound 0.0025 µM)	relative viability ([2]; first compound 0.007906 µM)	relative viability ([2]; first compound 0.025 µM)	relative viability ([2]; first compound 0.07906 µM)	relative viability ([2]; first compound 0.25 µM)	relative viability ([3]; first compound 0.0025 µM)	relative viability ([3]; first compound 0.007906 µM)	relative viability ([3]; first compound 0.025 µM)	relative viability ([3]; first compound 0.07906 µM)	relative viability ([3]; first compound 0.25 µM)	relative viability ([4]; first compound 0.08 µM)	relative viability ([4]; first compound 0.253 µM)	relative viability ([4]; first compound 0.8 µM)	relative viability ([4]; first compound 2.53 µM)	relative viability ([4]; first compound 8 µM)
NCI-H1355	0.665	0.691	0.601	0.646	0.691	0.889	0.806	0.783	0.738	0.724	1.09	1.08	1.04	0.847	0.927	0.446	0.442	0.395	0.269	0.398
NCI-H1395	0.773	0.694	0.707	0.927	0.766	0.552	0.408	0.38	0.342	0.403	0.925	0.791	0.827	0.796	0.718	0.601	0.555	0.681	0.603	0.697
NCI-H1437	0.931	0.851	0.869	0.843	0.858	0.624	0.622	0.635	0.643	0.613	0.341	0.322	0.331	0.354	0.316	0.416	0.494	0.476	0.439	0.368
NCI-H1650	0.685	0.491	0.569	0.588	0.84	0.826	0.823	0.759	0.79	0.797	0.321	0.406	0.367	0.369	0.321	0.607	0.576	0.557	0.4	0.511
NCI-H1651	0.539	0.592	0.531	0.513	0.543	0.178	0.172	0.205	0.193	0.199	0.587	0.598	0.531	0.56	0.53	0.562	0.522	0.504	0.492	0.434
NCI-H1666	1.04	0.997	1.08	1.04	0.971	0.751	0.742	0.766	0.769	0.725	0.886	0.925	0.857	0.906	0.866	0.471	0.404	0.322	0.622	0.426
NCI-H1734	0.712	0.846	0.83	0.826	0.815	0.663	0.635	0.576	0.511	0.53	0.412	0.426	0.436	0.467	0.423	0.503	0.499	0.427	0.414	0.432
NCI-H1755	0.738	0.8	0.82	0.809	0.725	0.92	0.897	0.861	0.85	0.902	0.42	0.424	0.424	0.425	0.422	0.451	0.411	0.448	0.452	0.412
NCI-H1793	0.784	0.82	0.773	0.913	0.881	0.896	0.975	0.829	0.768	0.719	0.973	1.13	0.883	0.825	0.609	0.265	0.336	0.364	0.371	0.256
NCI-H1915	0.499	0.52	0.488	0.451	0.574	0.259	0.251	0.266	0.249	0.255	0.497	0.465	0.466	0.497	0.53	0.976	0.914	0.975	0.934	0.914
NCI-H1944	0.496	0.613	0.474	0.538	0.566	0.455	0.427	0.423	0.373	0.423	0.614	0.681	0.609	0.594	0.622	0.38	0.364	0.323	0.343	0.346
NCI-H1975	0.73	0.726	0.701	0.716	0.649	0.814	0.906	0.839	0.77	0.875	0.317	0.297	0.283	0.268	0.287	0.293	0.322	0.288	0.319	0.326
NCI-H1993	0.726	0.717	0.77	1.08	0.897	0.964	0.957	0.947	0.844	0.912	0.651	0.623	0.609	0.607	0.639	0.902	0.853	0.766	0.743	0.712
